Laboratory results taken from PubChem BioAssay AID1552 (Sanford-Burnham Center for Chemical Genomics, 2009).
Active and inactive are the calls of the source. No rule for the calls is given here.

Molecular target: Ubiquitin-conjugating enzyme E2 N (Homo sapiens) (UniProt P61088)
Assay: NMR detection of UBE2N ligand binding – biophysical, purified protein (AID 1552)
Conditions: NMR binding to purified UBE2N

Sequence of Ubiquitin-conjugating enzyme E2 N (Homo sapiens) (P61088 whole entry, looked up): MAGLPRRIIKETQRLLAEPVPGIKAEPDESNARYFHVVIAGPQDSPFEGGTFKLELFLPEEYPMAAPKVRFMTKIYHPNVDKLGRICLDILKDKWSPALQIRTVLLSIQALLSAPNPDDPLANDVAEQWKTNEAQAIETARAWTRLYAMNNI

SMILES | Kd
COc1ccc(-c2oc3cc(O[C@H]4O[C@H](CO)[C@@H](O)[C@H](O)[C@H]4O)c(OC)c(O)c3c(=O)c2OC)cc1O | > 4 mM (inactive)
O=C(Nc1nccs1)c1cccnc1 | > 4 mM (inactive)
O=C(Cc1ccc(F)cc1)Nc1ncccn1 | > 4 mM (inactive)
COc1cc2c(c(OC)c1OC)-c1ccc(O)c(=O)cc1[C@@H](NC(C)=O)CC2 | > 4 mM (inactive)
O=C1CC2OCC=C3CN4CC[C@]56c7ccccc7N1C5[C@H]2[C@H]3CC46 (stereo partly drawn) | > 4 mM (inactive)
CCn1nnc(NC(=O)c2cc3ccccc3o2)n1 | > 4 mM (inactive)
CC(=O)NCS(=O)(=O)c1ccc(C)cc1 | > 4 mM (inactive)
O=C1NC(=S)N/C1=C\c1cccc([N+](=O)[O-])c1 | > 4 mM (inactive)
O=C(CSc1ccnc(=O)[nH]1)NCc1ccccc1 | > 4 mM (inactive)
Cc1onc(-c2ccc(F)cc2)c1C(=O)O | > 4 mM (inactive)
CN(C)/C=N/S(=O)(=O)c1ccccc1 | > 4 mM (inactive)
Cc1scc(C(=O)Nc2ccon2)c1-c1ccccc1 | > 4 mM (inactive)
Cc1cc(C)n2nc(SCC(=O)c3ccccc3)nc2n1 | > 4 mM (inactive)
CNC(=O)n1ccc(C(=O)N2CCCCC2)n1 | > 4 mM (inactive)
c1ccc(Cn2cccc2)nc1 | > 4 mM (inactive)
NCCc1cnc[nH]1 | > 4 mM (inactive)
COc1ccc(C(=O)CC(=O)O)c2c1C=CC(C)(C)O2 | > 4 mM (inactive)
CCOc1cc(S(=O)(=O)n2nc(C)cc2C)ccc1F | > 4 mM (inactive)
Cc1oc(-c2ccccc2)nc1CCO | > 4 mM (inactive)
O=C(CSc1ncn[nH]1)c1ccc2c(c1)OCO2 | > 4 mM (inactive)
CC1CCN(C(=O)c2cc3ccccc3o2)CC1 | > 4 mM (inactive)
O=C(Nc1ccccc1[N+](=O)[O-])c1ccc(=O)[nH]n1 | > 4 mM (inactive)
C=CCCCCCCCCCCCC(O)CC(O)COC(C)=O (stereo not drawn) (tested in a mixture with another compound) | > 4 mM (inactive)
Cc1ccccc1NC(=O)N1CCOCC1 | > 4 mM (inactive)

SMILES | Kd
O=C1CCCc2c1nc(-c1ccccc1)n2O | > 4 mM (inactive)
O=C(Nc1cccc(O)c1)c1ccccc1 | > 4 mM (inactive)
COCc1cc(Cl)nc(-c2csc(C)n2)n1 | > 4 mM (inactive)
CC1C[C@H]2CC(=O)[C@H]3CCCN4CCC[C@H]2[C@]34C1 (stereo partly drawn) | > 4 mM (inactive)
O=C(O)c1ccc2c(c1)CCO2 | > 4 mM (inactive)
CC(=O)Nc1ccccc1-c1ccccc1NC(C)=O | > 4 mM (inactive)
Cc1c(C(=O)Nc2ccccc2)sc(N)c1C(N)=O | > 4 mM (inactive)
Nc1ccc(Cl)nn1 | > 4 mM (inactive)
CC1(C)CC[C@]2(C(=O)O)CC[C@]3(C)C(=CCC4[C@@]5(C)CC[C@@H](O)C(C)(C)C5CC[C@]43C)C2C1 (stereo partly drawn) | > 4 mM (inactive)
Cc1nc2ccccc2c2c1C(=O)N(N)C2=O | > 4 mM (inactive)
Cc1cc(=O)c2c(O)c(C)c(O)cc2o1 | > 4 mM (inactive)
O=C(c1ccncc1)N1CCN(C(=O)c2ccncc2)CC1 | > 4 mM (inactive)
Cc1nnsc1C(=O)Nc1ccccc1[N+](=O)[O-] | > 4 mM (inactive)
Cc1ccc(/C=N/n2c(C)nnc2C)cc1 | > 4 mM (inactive)
Cc1cc(C(F)(F)F)n2nc(C(=O)O)c(Cl)c2n1 | > 4 mM (inactive)
CN(C)C(=O)c1ccccc1-c1ccccc1 | > 4 mM (inactive)
COc1cc(C(=S)N2CCOCC2)ccc1O | > 4 mM (inactive)
COc1cccc(C(=O)N2CCOCC2)c1 | > 4 mM (inactive)
CC(=O)NC(=S)Nc1ccc(C(C)=O)cc1 | > 4 mM (inactive)
Cn1nnc2cc(CO)ccc21 | > 4 mM (inactive)
C=C(C)C1CC=C(CO)CC1 (stereo not drawn) | > 4 mM (inactive)
NC(=O)C1CCN(CN2C(=O)c3ccccc3C2=O)CC1 | > 4 mM (inactive)
O=C(O)c1csc(-c2ccccc2)n1 | > 4 mM (inactive)
COc1ccc(N/C(N)=N\c2nc(C)cc(C)n2)cc1 | > 4 mM (inactive)

SMILES | Kd
Nc1ccc(OCc2ccccc2)cc1 | > 4 mM (inactive)
CCc1ccc(C(=O)N2CCCC2)s1 | > 4 mM (inactive)
O=C1NC(=O)/C(=C\c2ccco2)S1 | > 4 mM (inactive)
O=C(O)c1cc(=O)c2cccc(O)c2[nH]1 | > 4 mM (inactive)
CN1CCN(Cc2cccnc2)CC1 | > 4 mM (inactive)
COC(=O)c1ccccc1C | > 4 mM (inactive)
O=C1CSC(=S)N1Cc1cccnc1 | > 4 mM (inactive)
CCSc1nnc2[nH]c(=O)cc(C)n12 | > 4 mM (inactive)
Cc1cc(C(=O)N2CCN(c3ncccn3)CC2)cs1 | > 4 mM (inactive)
O=C(c1ccc(Cl)c(F)c1F)N1CCCC1 | > 4 mM (inactive)
C/C=C/c1ccc2c(c1)OCO2 | > 4 mM (inactive)
CNC(=O)c1ccccc1-c1ccccc1 | > 4 mM (inactive)
Cc1nn(CC(=O)Nc2ccccn2)c(=O)c2ccccc12 | > 4 mM (inactive)
CN(C)C(=O)c1ccc(-c2n[nH]c(=O)c3ccccc23)cc1 | > 4 mM (inactive)
CC(C)=CC(=O)Nc1ccccc1Br | > 4 mM (inactive)
O=C(Nc1cnc2ccccn2c1=O)c1ccc(F)cc1 | > 4 mM (inactive)
NC(=O)c1ccc(N2C(=O)CCC2=O)cc1Cl | > 4 mM (inactive)
O=C(O)c1cc(=O)[nH]c2ccccc12 | > 4 mM (inactive)
COC(=O)CC1C(C)(C)C(OC(C)=O)[C@@H]2[C@@H](OC(C)=O)[C@]34O[C@@]2(O)[C@]1(C)C3CC[C@]1(C)C4=CC(=O)O[C@H]1c1ccoc1 (stereo partly drawn) | > 4 mM (inactive)
COC(=O)c1cn(C(=O)OC)c2ccccc12 | > 4 mM (inactive)
O=C1NC(=O)C(Cc2ccccc2)C(=O)N1 | > 4 mM (inactive)
Cc1nc(-c2ccc(C(=O)O)s2)cs1 | > 4 mM (inactive)
Cc1cc(CN2C(=O)c3ccccc3C2=O)on1 | > 4 mM (inactive)
Cc1ccc(N2CCN(C(=O)c3ccccc3)CC2)c(C)c1 | > 4 mM (inactive)

SMILES | Kd
c1ccc(-c2csc3ncn4nnnc4c23)cc1 | > 4 mM (inactive)
O=C(/C(=N\O)n1cncn1)c1ccccc1Cl | > 4 mM (inactive)
COC(=O)C[C@H]1C(C)(C)C(=O)[C@@H]2CC3=C4CC(=O)O[C@@H](c5ccoc5)[C@]4(C)CCC3C1(C)C2=O (stereo partly drawn) | > 4 mM (inactive)
Cc1cc(S(=O)(=O)N2CCOCC2)ccc1F | > 4 mM (inactive)
c1cc(CNc2ccc3c(c2)OCCO3)ccn1 | > 4 mM (inactive)
Fc1ccc(F)c(CN2CCN(c3ncccn3)CC2)c1 | > 4 mM (inactive)
OCc1ccc(-n2cccn2)cc1 | > 4 mM (inactive)
O=C(NCc1ccccn1)c1ccc(Cl)cc1Cl | > 4 mM (inactive)
OC12CC3CC(C1)C1(NCCS1)C(C3)C2 (stereo not drawn) | > 4 mM (inactive)
O=C(O)C1CC(=O)N(C2Cc3ccccc3C2)C1 (stereo not drawn) | > 4 mM (inactive)
CN1CCC(N2CCCC(C(N)=O)C2)CC1 (stereo not drawn) | > 4 mM (inactive)
COc1ccc(-c2nnsc2N)cc1 | > 4 mM (inactive)
COc1ccc(-c2coc3cc(O)ccc3c2=O)c(O)c1O | > 4 mM (inactive)
CCC(C)C(=O)O[C@H]1[C@H](O)C2C(CN3CC(C)CCC3[C@@]2(C)O)C2C[C@]34O[C@]5(O)C(OC(=O)C(C)(O)C(C)O)CC[C@@]3(C)C5C(OC(C)=O)[C@@H](OC(C)=O)C4[C@@]21O (stereo partly drawn) | > 4 mM (inactive)
Nc1nc(-c2ccc(O)cc2)cs1 | > 4 mM (inactive)
S=c1ccc(N2CCCCC2)n[nH]1 | > 4 mM (inactive)
OC12CC3CC(CC(C3)C1)C2 | > 4 mM (inactive)
C[n+]1ccc(C(=O)[O-])cc1 | > 4 mM (inactive)
NC1CCN(Cc2ccccc2)CC1 | > 4 mM (inactive)
NC(=O)c1cc(Cl)c(C(N)=O)cc1Cl | > 4 mM (inactive)
O=C1CSC(c2ccc3c(c2)OCO3)N1 (stereo not drawn) | > 4 mM (inactive)
NC(CC(=O)O)C(=O)Nc1ccc(Cl)cc1 (stereo not drawn) | > 4 mM (inactive)
Cc1ccc(C(=O)Nn2cnnc2)s1 | > 4 mM (inactive)
S=c1[nH]c2cccnc2[nH]1 | > 4 mM (inactive)

SMILES | Kd
OCc1ccccc1O[C@@H]1O[C@H](CO)[C@@H](O)[C@H](O)[C@H]1O | > 4 mM (inactive)
Cc1nc(SCC#N)c2c(C)c(C)sc2n1 | > 4 mM (inactive)
Nc1nc(SCc2ccc3c(c2)OCCO3)n[nH]1 | > 4 mM (inactive)
Cc1ccccc1N1CCN(C(=O)C2CCCCC2)CC1 | > 4 mM (inactive)
Cc1nnc(SCc2ccc(F)cc2)s1 | > 4 mM (inactive)
COc1cc(-c2coc3cc(O[C@@H]4O[C@H](CO)[C@@H](O)[C@H](O)[C@H]4O)c(OC)c(O)c3c2=O)cc(O)c1OC | > 4 mM (inactive)
CC(=O)NC1(NC(C)=O)CCN(C)CC1 | > 4 mM (inactive)
O=c1ccc2ccc(O)cc2o1 | > 4 mM (inactive)
COc1c(-c2coc3cc4c(cc3c2=O)CC(O)C(C)(C)O4)ccc2c1C=CC(C)(C)O2 (stereo not drawn) | > 4 mM (inactive)
NC(=O)c1c(Cl)nsc1-c1ccccc1Cl | > 4 mM (inactive)
CC(C)(C)CC(=O)N1CCC(C(N)=O)CC1 | > 4 mM (inactive)
O=C(Nc1ccon1)c1csc2ccccc12 | > 4 mM (inactive)
O=C(O)C1CC(C2CCCCN2)CN2CCCCC12 (stereo not drawn) | > 4 mM (inactive)
Cc1ccccc1NS(=O)(=O)c1ccc(F)cc1 | > 4 mM (inactive)
COc1ccc(-c2nc3nc(C)cc(C)n3n2)cc1 | > 4 mM (inactive)
S=C(NCc1ccco1)NN1CCOCC1 | > 4 mM (inactive)
Cc1ccn(S(=O)(=O)c2ccc(C(C)(C)C)cc2)n1 | > 4 mM (inactive)
O=C1C2CC=CCC2C(=O)N1c1ccccc1O (stereo not drawn) | > 4 mM (inactive)
CS(=O)(=O)N1CCN(C(=O)c2ccccc2)C1 | > 4 mM (inactive)
O=C(CN1C(=O)CCC1=O)c1ccccc1 | > 4 mM (inactive)
CCn1nnnc1Oc1ccc(Cl)cc1 | > 4 mM (inactive)
O=C(Nc1ccccc1)C(=O)NC1CC1 | > 4 mM (inactive)
